Experiments:
central nervous system = assay: Pharmacological tests: action on the central nervous system, overall profile; format: in vivo; conditions: for action on the central nervous system: in words
Procedure: The results of the pharmacological tests which were carried out have been summarised below.

[1] = system: hypothermia, trembling and peripheral cholinergic symptoms brought about by oxotremorine; assay: Interaction with oxotremorine; format: in vivo, mice; conditions: for effect towards oxotremorine: in words
Procedure: Mice (6 per dose) are given an intraperitoneal injection of 0.5 mg/kg of oxotremorine 30 minutes after the administration of CRL 40,028.

[2] = General behaviour / psychopharmacological spectrum (species not stated); format: in vivo; conditions: for mydriatic effect: in words
mice [3] = assay: General behaviour, mice; format: in vivo; conditions: mice
[4] = system: stereotype behaviour induced by amphetamine; assay: Interaction with amphetamine; format: in vivo, rats; conditions: for boosting of stereotypies produced by amphetamine-type compounds: in words; for duration of the stereotypies brought about by amphetamine: rat, in vivo
Procedure: Amphetamine (2 mg/kg, given intraperitoneally) is injected 30 minutes after the administration of CRL 40,028 (6 rats/dose).

[5] = system: hypothermia and ptosis produced by reserpine; assay: Interaction with reserpine; format: in vivo, mice
Procedure: Batches of 6 mice are given an intraperitoneal injection of reserpine (2.5 mg/kg) 4 hours before the administration of CRL 40,028.

mice [6] = assay: Toxicity, intraperitoneal administration, mice; format: in vivo; conditions: intraperitoneal administration
residual motility = assay: Residual motility; format: in vivo, mice
passes which entail pain [7] = assay: Four plate test; format: in vivo, mice; conditions: in words
Procedure: (§1) The test is carried out on batches of 20 mice, 30 minutes after the administration of CRL 40,028.

[8] = system: convulsive effects of the electric shock; assay: Electric shock; format: in vivo, mice
Procedure: as §1

spontaneous motility = assay: Spontaneous motility (actimetry); format: in vivo, mice; conditions: mice
Procedure: CRL 40,028 increases the motor activity of the animals from a dose of 16 mg/kg onwards. As this effect is representative of the activity of CRL 40,028, attempts have been made to obtain its kinetics more precisely. […]

rats = assay: General behaviour, rats; format: in vivo
groups of mice = assay: Group toxicity; conditions: Table IV, graded symbols
passes which entail pain [9] = conditions: mentioned for comparison; cited from earlier work
[10] = at doses close to the toxic dose; mentioned for comparison; cited from earlier work
[11] = at medium doses, very moderate intensity

In the case of `Cl.NC(C[S+]([O-])C(c1ccccc1)c1ccccc1)=NO` (stereo not shown) [CRL 40,048, Benzhydrylsulphinylacetamidoxime hydrochloride], the “action on the central nervous system” value (central nervous system) is reported as “acts only on the central nervous system”, the solubility (Solubility in water) is reported as 100 mg/mL and the effect towards oxotremorine [1] is reported as “antagonist action on oxotremorine”. The mydriatic effect [2] was “absence of a mydriatic effect”, the “hyper-reactivity to the touch” value (mice [3]) was “hyper-reactivity to the touch” and the “boosting of stereotypies produced by amphetamine-type compounds” value [4] was “boosts stereotypies produced by amphetamine-type compounds”.
In the case of `Cl.[O-][S+](CCN1CCOCC1)C(c1ccccc1)c1ccccc1` (stereo not shown) [CRL 40,221, N-[2-(Benzhydrylsulphinyl)-ethyl]-morpholine hydrochloride], the anti-reserpine effect ([5]; in words) is reported as “an anti-reserpine effect”, the LD-O (mice [6]) is reported as “greater than 512 mg/kg” and the psychopharmacological spectrum (central nervous system; comparison with tricyclic anti-depressants) is reported as “close to that of tricyclic anti-depressants”. The effect towards oxotremorine [1] was “an anti-oxotremorine effect”, the “motor activity in mice accustomed to their chamber” value (residual motility; mice) was “a resumption of motor activity” and the sedation ([2]; at doses close to the toxic dose) was “a sedation at doses close to the toxic dose”. For the same compound, the hypothermia ([2]; at high doses) was “hypothermia at high doses”, the mydriatic effect [2] was “a considerable mydriasis” and the “effect in the four plate test” value (passes which entail pain [7]) was “a certain effect in the four plate test”. For the same compound, the “protection against convulsions produced by electric shock” value ([8]; in words) was “a protection against convulsions” and the “boosting of stereotypies produced by amphetamine-type compounds” value [4] was “a (metabolic) boosting of the stereotypies”.
In the case of `Cl.[O-][S+](CCN1CCCCC1)C(c1ccccc1)c1ccccc1` (stereo not shown) [CRL 40,222, N-[2-(Benzhydrylsulphinyl)-ethyl]-piperidine hydrochloride], the anti-reserpine effect ([5]; in words) is reported as “absence of an anti-reserpine effect”, the LD-O (mice [6]) is reported as “greater than 128 mg/kg” and the “action on the central nervous system” value (central nervous system) is reported as “acts on the central nervous system”. For the same compound, the spontaneous motility (spontaneous motility; only at a low dose of 1 mg/kg) was “an increase in the spontaneous motility”, the effect towards oxotremorine [1] was “a moderate action towards oxotremorine” and the residual motility (residual motility; mice, 8 mg/kg) was “a stimulation of the residual motility”. For the same compound, the “duration of the stereotypies brought about by amphetamine” value [4] was “an increase in the duration of the stereotypies”.
For `O=C(CC[S+]([O-])C(c1ccccc1)c1ccccc1)NO` (stereo not shown) [CRL 40,260, 3-(Benzhydrylsulphinyl)-propionohydroxamic acid], the LD-O (mice [6]) was “greater than 1,024 mg/kg”, the toxicity in words (mice [6]) was “low toxicity” and the spontaneous motility (spontaneous motility) was “a reduction in the spontaneous motility”. For the same compound, the hyper-reactivity (rats) was “a hyper-reactivity”, the “sedation, with hypomotility” value (rats) was “a sedation, with hypomotility” and the hyper-reactivity (mice [3]) was “a hyper-reactivity”. For the same compound, the “sedation, with hypomotility” value (mice [3]) was “a sedation, with hypomotility”.
For `Cl.NC(CC[S+]([O-])C(c1ccccc1)c1ccccc1)=NO` (stereo not shown) [CRL 40,261, 3-(Benzhydrylsulphinyl)-propionamidoxime hydrochloride], the “hypothermia due to reserpine” value ([5]; in words) was “an increase in the hypothermia due to reserpine”, the “palpebral ptosis induced by reserpine” value ([5]; in words) was “without alteration of the palpebral ptosis” and the LD-O (mice [6]) was “greater than 256 mg/kg”. For the same compound, the spontaneous motility (spontaneous motility; 2 mg/kg, 8 mg/kg and 32 mg/kg) was “an increase in the spontaneous motility”, the effect towards oxotremorine [1] was “moderate effect towards oxotremorine” and the “duration of the stereotypies brought about by amphetamine” value [4] was “an increase in the duration of the stereotypies”.
In the case of `Cl.NC(CCC[S+]([O-])C(c1ccccc1)c1ccccc1)=NO` (stereo not shown) [CRL 40,277, 4-(Benzhydrylsulphinyl)-butyramidoxime hydrochloride], the “hypothermic effects of reserpine” value ([5]; at high doses) is reported as “aggravation of the hypothermic effects of reserpine”, the LD-O (mice [6]) is reported as “greater than 512 mg/kg” and the “action on the central nervous system” value (central nervous system) is reported as “acts on the central nervous system”. The “hypothermic effects of oxotremorine” value ([1]; at high doses) was “aggravation of the hypothermic effects”, the residual hypermotility (residual motility; [11]) was “inconstant residual hypermotility” and the hypomotility ([2]; at high doses) was “hypomotility”. The hypothermia ([2]; at high doses) was “hypothermia”, the hyper-reactivity [2, 11] was “hyper-reactivity” and the “lethal effects of the electric shock” value ([8]; at high doses) was “an aggravation of the lethal effects of the electric shock”. The “boosting of the effect of amphetamine” value [4, 11] was “boosting of the effect of amphetamine”.
In the case of `O=C(CCC[S+]([O-])C(c1ccccc1)c1ccccc1)NO` (stereo not shown) [CRL 40,278, 4-(Benzhydrylsulphinyl)-butyrohydroxamic acid], the LD-O (mice [6]) is reported as “greater than 1,024 mg/kg” and the “action on the central nervous system” value (central nervous system) is reported as “acts on the central nervous system”.
With `Cn1c(=O)c2c(ncn2C)n(C)c1=O` [Caffeine, reference compound] the “Anti-reserpine action (ptosis)” value ([5]; Table IV, graded symbols) was 0, the Group toxicity (groups of mice) was 0 and the “Anti-oxotremorine action (peripheral)” value ([1]; Table IV, graded symbols) was 0. The “Anti-oxotremorine action (trembling)” value ([1]; Table IV, graded symbols) was 0.
For `CN(C)CCC=C1c2ccccc2CCc2ccccc21` [amitriptyline], the “effect in the four plate test (comparison drug)” value (“effect … (comparison drug)” below) (passes which entail pain [9]) is listed as “a certain effect in the four plate test” and the “sedation (comparison drug)” value [10] is listed as “not”.
In the case of `CN(C)CCCN1c2ccccc2CCc2ccccc21` [imipramine], the “effect … (comparison drug)” value (passes which entail pain [9]) is given as “a certain effect in the four plate test”.
In the case of `CNCCC=C1c2ccccc2CCc2ccccc21` [nortriptyline], the “effect … (comparison drug)” value (passes which entail pain [9]) is given as “not” and the “sedation (comparison drug)” value [10] is given as “a sedation at doses close to the toxic dose”.
